Test results reported in patent US10328077B2 (CELGENE CORPORATION, priority 2016, dated 2019).
Where two headings read alike, the source gives them in different places.

Assays:
LXFS 1129 SCLC PDX model = assay: LXFS 1129 SCLC PDX model; parameters: species or system mice; details: female, NMRI-Foxnlnu, mouse, in vivo, oral, read-out: AUC0-24
[1] = system: LXFS 1129 SCLC patient-derived xenograft; assay: LXFS 1129 SCLC PDX model; parameters: species or system mice; details: mouse, in vivo
[2] = system: LXFS 2156 SCLC patient-derived xenograft; assay: LXFS 2156 SCLC PDX model; format: in vivo, mice; details: 5 mg base/kg oral QD×23
[3] = system: LU2527 lung NEC patient-derived xenograft; format: in vivo
MS-1 hMCC xenograft = format: in vivo; details: 5 mg/kg PO 5 on/2 off
[4] = system: gene expression in MKL-1 and MS-1 hMCC cell lines; assay: RNA-seq modulation of gene expression in cultured hMCC cells; format: cell-based, human; details: 10 and 100 nM
Protocol: The modulation of gene expression by Compund A for a panel of human genes was determined by culturing MKL-1 or MS-1 cells (Sigma-Aldrich, St. Louis, Mo.) for three days in the presence of 0, 10, or 100 nM Compund A and extracting total RNA for assessment by RNA-seq.
Libraries were sequenced on an Illumina NextSeq® 500 System (Illumina, San Diego, Calif.) using 75 base paired-end RNA sequencing. Sequenced reads were mapped to the hg19 human genome build and differential expression was determined by analysis of variance across all replicates relative to the vehicle control.
Sequenced reads were mapped to the hg19 human genome build using the Spliced Transcripts Alignment to a Reference (STAR) software tool (©Alexander Dobin, 2009-2016) and transcript counts were normalized using the Empirical Analysis of Digital Gene Expression Data in R (edgeR) and Differential gene expression analysis based on the negative binomial distribution (DESeq2) software tools (©Bioconductor, 2003-2017). Differential expression was determined by analysis of variance across all replicates relative to the vehicle control.

LNCaP cells = assay: LNCaP cell proliferation with DHT and irradiation; format: cell-based, human; details: 10 nM DHT + 100 nM Compound A + 2Gy irradiation vs DHT + irradiation or DHT + Compound A, 220 hours
Protocol: LNCaP cells are androgen-sensitive human prostate adenocarcinoma cells. […] The proliferation of the LNCap cells was monitored for 220 hours.

[5] = 4-week oral gavage pivotal toxicity study with 4-week recovery in dogs (incl. ECG, TK); format: in vivo, Beagle dogs; details: for AUC(0-t): Beagle, po, AUC0-168
Protocol: The QTc interval was calculated using the Fridericia method.

[6] = Pharmacokinetics after IV and oral dose, dogs; format: in vivo, Beagle dogs; details: dog, plasma
[7] = Pharmacokinetics after IV and oral dose, monkeys; format: in vivo; details: cynomolgus monkey, plasma, male; for half-life: read-out: t1/2, z (converted)
P-gp (MDR1) = P-gp (MDR1) (Homo sapiens (Human), UniProt P08183); assay: Permeability in MDR1-MDCK cells; format: in vitro ADME
Sequence of P-gp (MDR1) (P08183 whole entry): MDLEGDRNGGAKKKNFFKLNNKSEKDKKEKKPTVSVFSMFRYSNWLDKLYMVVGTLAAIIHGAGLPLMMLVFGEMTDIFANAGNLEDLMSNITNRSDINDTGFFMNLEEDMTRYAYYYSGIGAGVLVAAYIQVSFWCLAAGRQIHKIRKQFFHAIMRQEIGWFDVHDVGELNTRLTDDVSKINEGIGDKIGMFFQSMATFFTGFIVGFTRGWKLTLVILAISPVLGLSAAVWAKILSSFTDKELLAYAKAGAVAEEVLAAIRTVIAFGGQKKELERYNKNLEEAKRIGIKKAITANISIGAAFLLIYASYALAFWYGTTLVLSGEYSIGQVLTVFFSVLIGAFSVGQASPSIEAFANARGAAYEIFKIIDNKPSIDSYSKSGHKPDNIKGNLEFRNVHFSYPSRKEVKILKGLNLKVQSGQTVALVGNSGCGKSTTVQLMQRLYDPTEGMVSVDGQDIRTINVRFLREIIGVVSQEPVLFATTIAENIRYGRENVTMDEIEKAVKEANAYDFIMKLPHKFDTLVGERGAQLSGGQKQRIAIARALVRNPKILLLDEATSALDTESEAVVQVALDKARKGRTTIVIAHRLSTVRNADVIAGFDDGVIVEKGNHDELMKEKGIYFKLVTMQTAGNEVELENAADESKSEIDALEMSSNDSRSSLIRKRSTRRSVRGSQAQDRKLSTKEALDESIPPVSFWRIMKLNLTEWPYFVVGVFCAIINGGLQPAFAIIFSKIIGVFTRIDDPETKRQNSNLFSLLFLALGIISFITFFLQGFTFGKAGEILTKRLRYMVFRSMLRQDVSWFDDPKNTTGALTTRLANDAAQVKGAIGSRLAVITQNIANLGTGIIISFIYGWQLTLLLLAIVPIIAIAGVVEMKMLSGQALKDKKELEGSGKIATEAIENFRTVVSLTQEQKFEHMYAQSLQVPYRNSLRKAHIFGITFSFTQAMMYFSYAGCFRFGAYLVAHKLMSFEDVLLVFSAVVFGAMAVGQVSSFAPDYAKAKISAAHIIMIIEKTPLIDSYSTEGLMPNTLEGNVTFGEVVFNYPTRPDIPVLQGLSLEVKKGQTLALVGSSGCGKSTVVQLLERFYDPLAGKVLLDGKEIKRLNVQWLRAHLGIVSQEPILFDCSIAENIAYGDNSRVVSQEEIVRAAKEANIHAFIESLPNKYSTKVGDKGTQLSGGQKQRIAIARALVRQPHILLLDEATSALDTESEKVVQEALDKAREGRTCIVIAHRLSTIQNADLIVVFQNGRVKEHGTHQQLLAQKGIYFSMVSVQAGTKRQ

CYP2C9 = CYP2C9 (Homo sapiens (Human), UniProt P11712); assay: CYP inhibition in pooled human liver microsomes, CYP2C9; format: in vitro ADME; details: up to 50 μM
Sequence of CYP2C9 (P11712 whole entry): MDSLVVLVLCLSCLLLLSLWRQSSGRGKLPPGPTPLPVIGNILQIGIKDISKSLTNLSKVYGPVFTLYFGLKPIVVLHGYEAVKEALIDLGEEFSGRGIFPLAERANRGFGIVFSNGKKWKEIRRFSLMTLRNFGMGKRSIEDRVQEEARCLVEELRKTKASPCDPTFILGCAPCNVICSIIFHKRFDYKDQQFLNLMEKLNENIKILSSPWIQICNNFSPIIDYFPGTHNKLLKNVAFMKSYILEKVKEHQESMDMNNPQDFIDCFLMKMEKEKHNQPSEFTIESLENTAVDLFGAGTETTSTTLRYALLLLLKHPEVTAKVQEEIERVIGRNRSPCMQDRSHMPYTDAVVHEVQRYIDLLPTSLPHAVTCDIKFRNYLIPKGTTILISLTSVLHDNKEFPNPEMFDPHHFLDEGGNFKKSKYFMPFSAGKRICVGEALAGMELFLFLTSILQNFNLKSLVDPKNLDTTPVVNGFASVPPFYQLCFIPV

CYP3A4 = CYP3A4 (Homo sapiens (Human), UniProt P08684); assay: CYP inhibition in pooled human liver microsomes, CYP3A4; format: in vitro ADME
Sequence of CYP3A4 (P08684 whole entry): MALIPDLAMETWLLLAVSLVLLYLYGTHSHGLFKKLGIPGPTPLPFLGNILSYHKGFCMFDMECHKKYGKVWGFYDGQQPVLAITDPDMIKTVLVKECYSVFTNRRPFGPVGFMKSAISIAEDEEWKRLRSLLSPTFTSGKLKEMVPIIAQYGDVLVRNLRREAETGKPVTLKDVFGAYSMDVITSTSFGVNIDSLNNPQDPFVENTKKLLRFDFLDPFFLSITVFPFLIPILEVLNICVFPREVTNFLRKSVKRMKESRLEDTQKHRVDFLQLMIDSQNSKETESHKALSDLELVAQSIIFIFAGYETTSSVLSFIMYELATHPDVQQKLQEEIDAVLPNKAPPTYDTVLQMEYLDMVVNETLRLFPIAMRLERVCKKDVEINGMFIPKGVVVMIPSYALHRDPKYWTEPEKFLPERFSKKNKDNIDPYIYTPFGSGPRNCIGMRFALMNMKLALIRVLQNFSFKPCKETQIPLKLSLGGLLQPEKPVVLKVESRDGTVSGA

CYP2B6 mRNA = assay: CYP induction in cryopreserved human hepatocytes, CYP2B6; format: in vitro ADME; details: 0.03 to 10 μM, up to 3 days
[8] = Exploratory toxicity study in dogs; format: in vivo, Beagle dogs
[9] = system: LXFS 573 SCLC patient-derived xenograft
hERG potassium channel = hERG potassium channel (Homo sapiens (Human), UniProt Q12809); assay: in vitro; details: HEK293 cells stably expressing hERG channels
Sequence of hERG potassium channel (Q12809 whole entry): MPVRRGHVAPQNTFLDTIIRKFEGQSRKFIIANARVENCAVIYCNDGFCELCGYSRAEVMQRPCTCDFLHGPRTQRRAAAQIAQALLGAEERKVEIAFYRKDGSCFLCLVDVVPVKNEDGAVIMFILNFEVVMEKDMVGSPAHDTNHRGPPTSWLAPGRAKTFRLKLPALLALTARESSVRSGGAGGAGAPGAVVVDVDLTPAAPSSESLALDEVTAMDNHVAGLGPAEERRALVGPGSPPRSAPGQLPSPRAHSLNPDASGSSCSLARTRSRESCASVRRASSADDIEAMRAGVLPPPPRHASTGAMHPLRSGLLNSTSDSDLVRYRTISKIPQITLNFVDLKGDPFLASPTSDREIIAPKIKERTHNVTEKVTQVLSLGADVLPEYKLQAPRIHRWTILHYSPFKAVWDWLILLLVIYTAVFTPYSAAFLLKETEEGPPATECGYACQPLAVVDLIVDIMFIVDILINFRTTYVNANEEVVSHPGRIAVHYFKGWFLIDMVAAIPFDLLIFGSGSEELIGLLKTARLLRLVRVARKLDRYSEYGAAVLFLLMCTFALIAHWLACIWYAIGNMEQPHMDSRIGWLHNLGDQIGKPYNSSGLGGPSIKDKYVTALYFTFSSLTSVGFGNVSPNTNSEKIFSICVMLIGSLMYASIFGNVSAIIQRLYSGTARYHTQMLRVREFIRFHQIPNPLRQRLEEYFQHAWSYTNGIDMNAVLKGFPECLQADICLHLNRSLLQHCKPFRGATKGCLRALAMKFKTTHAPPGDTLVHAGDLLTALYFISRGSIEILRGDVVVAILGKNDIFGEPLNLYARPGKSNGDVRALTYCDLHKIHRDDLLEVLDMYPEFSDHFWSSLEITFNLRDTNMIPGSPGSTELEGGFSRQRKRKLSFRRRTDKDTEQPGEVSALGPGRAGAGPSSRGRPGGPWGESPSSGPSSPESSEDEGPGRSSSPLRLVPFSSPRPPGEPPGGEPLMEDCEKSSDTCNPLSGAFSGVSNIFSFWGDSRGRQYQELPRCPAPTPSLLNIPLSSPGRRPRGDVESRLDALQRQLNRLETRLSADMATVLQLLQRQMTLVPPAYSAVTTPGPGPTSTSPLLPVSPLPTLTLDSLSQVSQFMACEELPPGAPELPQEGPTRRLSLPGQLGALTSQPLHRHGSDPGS

[10] = 4-week toxicity study (no recovery period) in dogs (incl. TK)
[11] = Beagle, male, single IV dose 1 mg
[12] = Beagle, male, single oral dose 1 mg base/kg
[13] = Beagle, male, single oral dose 3 mg base/kg
[14] = Beagle, male, single oral dose 6 mg base/kg
[15] = Compound A 5 mg/kg/day PO days 1-133

COc1ccc(-c2c(-c3ccc(C#N)c(F)c3)nc(N3CCC(N)CC3)n(C)c2=O)cc1F [Compound A, 4-[2-(4-amino-piperidin-1-yl)-5-(3-fluoro-4-methoxy-phenyl)-1-methyl-6-oxo-1,6-dihydro-pyrimidin-4-yl]-2-fluoro-benzonitrile]
AUC(0-t) (LXFS 1129 SCLC PDX model; 1.5 mg base/kg): 243 ng·h/mL
AUC(0-t) (LXFS 1129 SCLC PDX model; 5 mg base/kg): 1260 ng·h/mL
mean body weight loss [1]: < 6%
TGI [2]: −7%
Median Tumor Volume Day 46 ([3]; 5 mg/kg PO QD x 46): 329.7 mm^3
Median Tumor Volume Diff (Day 46 - Day 0) ([3]; 5 mg/kg PO QD x 46): 177.9 mm^3
% TGI ([3]; 5 mg/kg PO QD x 46, Day 46): 84%
TGI ([3]; 5 mg/kg oral QD for 46 days): 84%
tolerability ([3]; 1.5 and 5 mg/kg oral QD): acceptably tolerated
Median Tumor Volume Day 36 (MS-1 hMCC xenograft): 129 mm^3
Median Tumor Volume Diff (Day 36 - Day -3) (MS-1 hMCC xenograft): 80 mm^3
downregulated genes with expression changes in both hMCC lines at both concentrations (of 4303) ([4]; 3 days, MKL-1 and MS-1): 17
upregulated genes with expression changes in both hMCC lines at both concentrations (of 3803) ([4]; 3 days, MKL-1 and MS-1): 172
ST18 and FREM2 gene expression change (upregulated) ([4]; both hMCC lines): at least 2 fold
LNCaP cell proliferation (LNCaP cells): significantly inhibits LNCaP cell proliferation
NOEL for CV and respiratory changes ([5]; BIW oral): 0.375 mg base/kg/dose
HNSTD and NOAEL ([5]; QW or BIW dose schedule): < 0.375 mg base/kg/dose
NOEL for CV and respiratory changes ([5]; QW oral): 0.75 mg base/kg/dose
reversibility of findings ([5]; dog, in vivo): complete recovery
AUC(0-t) ([5]; female, dog, in vivo): 435 ng·h/mL
AUC(0-t) ([5]; male, dog, in vivo): 503 ng·h/mL
moribund euthanasia ([5]; weekly oral 0.375 to 1.5 mg base/kg, Days 13 to 23): 11 animals
primary toxicities ([5]; ≥0.375 mg base/kg/dose, QW or BIW): mucosal ulceration, acute and/or subacute inflammation, and mucosal epithelial atrophy of GI tract tissues
half-life ([6]; Beagle (dogs), IV, non-rodents (dogs, monkeys), read-out: half-life): 12 to 20 h
bioavailability ([6]; Beagle, po, dogs and monkeys, read-out: oral bioavailability): 82 to 100%
AUC(0-inf) [6, 11]: 1940 ng·h/mL
AUC(0-t) [6, 11]: 1300 ng·h/mL
clearance [6, 11]: 9 mL/min/kg
Vd ([6]; Beagle, male, single IV dose 1 mg, mean (SD), read-out: Vss): 11.1 L/kg
half-life ([6]; Beagle, male, single IV dose 1 mg, read-out: t1/2, z (converted)): 15.5 h
AUC(0-t) [6, 12]: 1090 ng·h/mL
Cmax [6, 12]: 69 ng/mL
Tmax [6, 12]: 2 h
bioavailability ([6]; Beagle, male, single oral dose 1 mg base/kg, read-out: % F): 84%
half-life ([6]; Beagle, male, single oral dose 1 mg base/kg, read-out: t1/2, z (converted)): 15 h
AUC(0-t) [6, 13]: 3790 ng·h/mL
Cmax [6, 13]: 298 ng/mL
Tmax [6, 13]: 1 h
bioavailability ([6]; Beagle, male, single oral dose 3 mg base/kg, read-out: % F): 100%
half-life ([6]; Beagle, male, single oral dose 3 mg base/kg, read-out: t1/2, z (converted)): 19.4 h
AUC(0-t) [6, 14]: 8790 ng·h/mL
Cmax [6, 14]: 627 ng/mL
Tmax [6, 14]: 1 h
bioavailability ([6]; Beagle, male, single oral dose 6 mg base/kg, read-out: % F): 100%
half-life ([6]; Beagle, male, single oral dose 6 mg base/kg, read-out: t1/2, z (converted)): 17.8 h
AUC(0-inf) ([7]; single IV dose 1 mg): 983 ng·h/mL
AUC(0-t) ([7]; single IV dose 1 mg): 912 ng·h/mL
clearance ([7]; single IV dose 1 mg): 18 mL/min/kg
Vd ([7]; single IV dose 1 mg, mean (SD), read-out: Vss): 17.1 L/kg
half-life ([7]; single IV dose 1 mg): 12 h
AUC(0-t) ([7]; single oral dose 5 mg base/kg): 3620 ng·h/mL
Cmax ([7]; single oral dose 5 mg base/kg): 187 ng/mL
Tmax ([7]; single oral dose 5 mg base/kg): 6 h
bioavailability ([7]; single oral dose 5 mg base/kg): 82%
half-life ([7]; single oral dose 5 mg base/kg): 12.9 h
Papp A→B (P-gp (MDR1)): 0.5 ×10⁻⁶ cm/s
Papp B→A (P-gp (MDR1)): 16.5 ×10⁻⁶ cm/s
direct inhibition of CYP2C9 (CYP2C9): little to no direct inhibitory effect
IC50 (CYP3A4): > 50 µM
increase in CYP2B6 mRNA over vehicle control (CYP2B6 mRNA): < 2 fold
platelet counts ([8]; 0.25 mg/kg/dose): no reduction in platelet counts
Compound A-related effects ([8]; 0.25 mg/kg/dose QOD): no Compound A-related effects
platelet counts ([8]; 0.5 mg/kg/dose (both schedules) and 1 mg/kg/dose, most dogs): below 25,000 /μL
body weight loss ([8]; one female, 0.5 mg/kg/day 5 days on/2 days off, sacrificed moribund Day 12): 10.8%
% TGD [9, 15]: 217%
T − C [9, 15]: 91 days
median TTE [9, 15]: 133 days
median TTE ([9]; Compound A monotherapy 5 mg/kg PO daily): 133 days
study survivors ([9]; Compound A monotherapy 5 mg/kg, Day 133, n=8): seven
MTV of study survivors ([9]; mouse, in vivo): 1064 mm3
MTV, median tumor volume of study survivors ([9]; mouse, in vivo): (1064) mm^3
SS, number of study survivors ([9]; mouse, in vivo): 7
inhibition at 0.3 µM (hERG potassium channel): 5.9 ± 1.3%
inhibition at 1 µM (hERG potassium channel): 17.8 ± 0.3%
inhibition at 3 µM (hERG potassium channel): 47 ± 1.9%
inhibition at 10 µM (hERG potassium channel): 77.3 ± 0.2%
HNSTD ([10]; Q2W administration): 0.5 mg base/kg/dose
NOAEL ([10]; Q2W administration): < 0.5 mg base/kg/dose
NOAEL ([10]; QW administration): 0.125 mg base/kg/dose
HNSTD ([10]; QW dosing): 0.25 mg base/kg/dose
